Test results published in US10722520B2, “Heterocyclic compounds and their use in preventing or treating bacterial infections” (MUTABILIS, priority 2016, dated 2020).
pIC50: −log10 of the molar value.

What was measured:
[1] = target: TEM-1 (Escherichia coli, UniProt P62593); details: read-out: IC50 β-lactamase TEM-1; class (A); nitrocefin 200 μM, 30-min pre-incubation, enzyme 0.1 nM
[2] = target: CMY-37 (Citrobacter freundii, UniProt P05193); details: read-out: IC50 β-lactamase CMY-37; class (C); nitrocefin 200 μM, 30-min pre-incubation, enzyme 0.2 nM
[3] = target: CTX-M-15 (Escherichia coli, UniProt Q9EXV5); details: read-out: IC50 β-lactamase CTX-M-15; class (A); nitrocefin 200 μM, 30-min pre-incubation, enzyme 0.4 nM
[4] = target: OXA-11 (Pseudomonas aeruginosa, UniProt Q06778); details: read-out: IC50 β-lactamase OXA-11; class (D); nitrocefin 200 μM, 30-min pre-incubation, enzyme 1.2 nM
[5] = target: OXA-15 (Pseudomonas aeruginosa, UniProt Q51574); details: read-out: IC50 β-lactamase OXA-15; class (D); nitrocefin 200 μM, 30-min pre-incubation, enzyme 0.4 nM
[6] = target: AmpC (P99) (Enterobacter cloacae, UniProt P05364); details: read-out: IC50 β-lactamase AmpC (P99); class (C); nitrocefin 200 μM, 30-min pre-incubation, enzyme 0.2 nM
[7] = target: SHV-1 (Klebsiella pneumoniae, UniProt P0AD64); details: read-out: IC50 β-lactamase SHV-1; class (A); nitrocefin 200 μM, 30-min pre-incubation, enzyme 0.075 nM
[8] = test system: E. cloacae P99; assay: MIC of compound alone, broth microdilution; assay type: cell-based; details: strain P99; compound alone
Procedure, shortened: (§1)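 Visual end point: lowest concentration that blocked growth. Conditions: cation-adjusted Mueller-Hinton broth, 5×10^5 cfu/mL final inoculum of log-phase bacteria, 16-20 h, 35° C, ambient atmosphere.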

[9] = test system: K. pneumoniae BAA-1898; assay: MIC of compound alone, broth microdilution; assay type: cell-based; details: strain BAA-1898; compound alone
Procedure, shortened: as §1

[10] = test system: P. aeruginosa CIP107051; assay: MIC of compound alone, broth microdilution; assay type: cell-based; details: strain CIP107051; compound alone
Procedure, shortened: as §1

[11] = test system: E. coli 190317; assay: MIC of compound alone, broth microdilution; assay type: cell-based; details: strain 190317; compound alone
Procedure, shortened: as §1

[12] = test system: K. pneumoniae 6299; assay: MIC of compound alone, broth microdilution; assay type: cell-based; details: strain 6299; compound alone
Procedure, shortened: as §1

[13] = target: KPC-2 (Klebsiella pneumoniae, UniProt Q9F663); details: read-out: IC50 β-lactamase KPC-2; class (A); nitrocefin 200 μM, 30-min pre-incubation, enzyme 1 nM
[14] = target: AmpC (PAE) (Pseudomonas aeruginosa, UniProt P24735); details: read-out: IC50 β-lactamase AmpC (PAE); class (C); nitrocefin 200 μM, 30-min pre-incubation, enzyme 0.4 nM
[15] = target: OXA-1 (Escherichia coli, UniProt P13661); details: read-out: IC50 β-lactamase OXA-1; class (D); nitrocefin 200 μM, 30-min pre-incubation, enzyme 0.2 nM
[16] = test system: E. cloacae P99; assay: MIC of ceftazidime (CAZ) at fixed concentration of compound (synergy), broth microdilution; assay type: cell-based; details: strain P99; MIC of CAZ, compound fixed at 4 μg/mL
Procedure, shortened: as §1

[17] = test system: K. pneumoniae BAA-1898; assay: as above; assay type: cell-based; details: strain BAA-1898; MIC of CAZ, compound fixed at 4 μg/mL
Procedure, shortened: as §1

[18] = test system: P. aeruginosa CIP107051; assay: as above; assay type: cell-based; details: strain CIP107051; MIC of CAZ, compound fixed at 4 μg/mL
Procedure, shortened: as §1

[19] = test system: E. coli 190317; assay: as above; assay type: cell-based; details: strain 190317; MIC of CAZ, compound fixed at 4 μg/mL
Procedure, shortened: as §1

[20] = test system: K. pneumoniae 6299; assay: as above; assay type: cell-based; details: strain 6299; MIC of CAZ, compound fixed at 4 μg/mL
Procedure, shortened: as §1

[21] = target: OXA-48 (Klebsiella pneumoniae, UniProt Q6XEC0); details: read-out: IC50 β-lactamase OXA-48; class (D); nitrocefin 200 μM, 30-min pre-incubation, enzyme 0.3 nM

SMILES: O=C([O-])Cc1cn(C2=CC3CN(C2)C(=O)N3OS(=O)(=O)[O-])nn1.[Na+].[Na+] (stereo not drawn) [Example 61]
- pIC50 [1]: 8.77
- pIC50 [2]: 7.39
- pIC50 [3]: 8.74
- pIC50 [4]: 6.44
- pIC50 [5]: 7.72
- pIC50 [6]: 7.70
- pIC50 [7]: 8.21
- MIC compounds of the invention alone [8]: 32 µg/mL
- MIC compounds of the invention alone [9]: >32 µg/mL
- MIC compounds of the invention alone [10]: >32 µg/mL
- MIC compounds of the invention alone [11]: 32 µg/mL
- MIC compounds of the invention alone [12]: 32 µg/mL
- pIC50 [13]: 7.77
- pIC50 [14]: 5.96
- pIC50 [15]: 6.96
- MIC combination of CAZ and compounds of the invention at 4 μg/mL [16]: 8 µg/mL
- MIC combination of CAZ and compounds of the invention at 4 μg/mL [17]: 64 µg/mL
- MIC combination of CAZ and compounds of the invention at 4 μg/mL [18]: 4 µg/mL
- MIC combination of CAZ and compounds of the invention at 4 μg/mL [19]: 0.5 µg/mL
- MIC combination of CAZ and compounds of the invention at 4 μg/mL [20]: 4 µg/mL
- pIC50 [21]: 9.04

SMILES: CC(=O)Nc1cnn(C2=CC3CN(C2)C(=O)N3OS(=O)(=O)[O-])c1.[Na+] (stereo not drawn) [Example 21, sodium [3-(4-acetamidepyrazol-1-yl)-7-oxo-1,6-diazabicyclo[3.2.1]oct-3-en-6-yl]sulfate]
- pIC50 [1]: 8.21
- pIC50 [2]: 7.00
- pIC50 [3]: 8.43
- pIC50 [4]: 5.85
- pIC50 [5]: 6.54
- pIC50 [6]: 6.64
- pIC50 [7]: 7.62
- MIC compounds of the invention alone [8]: >32 µg/mL
- MIC compounds of the invention alone [9]: >32 µg/mL
- MIC compounds of the invention alone [10]: >32 µg/mL
- MIC compounds of the invention alone [11]: 16 µg/mL
- MIC compounds of the invention alone [12]: >32 µg/mL
- pIC50 [13]: 6.57
- pIC50 [14]: 6.49
- pIC50 [15]: 5.68
- MIC combination of CAZ and compounds of the invention at 4 μg/mL [16]: 16 µg/mL
- MIC combination of CAZ and compounds of the invention at 4 μg/mL [17]: 64 µg/mL
- MIC combination of CAZ and compounds of the invention at 4 μg/mL [18]: 4 µg/mL
- MIC combination of CAZ and compounds of the invention at 4 μg/mL [19]: 0.25 µg/mL
- MIC combination of CAZ and compounds of the invention at 4 μg/mL [20]: 4 µg/mL
- pIC50 [21]: 7.35

SMILES: Cc1cc(C(N)=O)nn1C1=CC2CN(C1)C(=O)N2OS(=O)(=O)[O-].[Na+] (stereo not drawn) [Example 23, sodium (7-oxo-3-(3-carboxamide-5-methyl-pyrazol-1-yl)-1,6-diazabicyclo[3.2.1]oct-3-en-6-yl) sulfate]
- pIC50 [1]: 9.72
- pIC50 [2]: 7.27
- pIC50 [3]: 9.00
- pIC50 [4]: 5.96
- pIC50 [5]: 6.12
- pIC50 [6]: 7.42
- pIC50 [7]: 9.44
- MIC compounds of the invention alone [8]: >32 µg/mL
- MIC compounds of the invention alone [9]: >32 µg/mL
- MIC compounds of the invention alone [10]: >32 µg/mL
- MIC compounds of the invention alone [11]: >32 µg/mL
- MIC compounds of the invention alone [12]: >32 µg/mL
- pIC50 [13]: 8.24
- pIC50 [14]: 6.66
- pIC50 [15]: 5.82
- MIC combination of CAZ and compounds of the invention at 4 μg/mL [16]: 8 µg/mL
- MIC combination of CAZ and compounds of the invention at 4 μg/mL [17]: 4 µg/mL
- MIC combination of CAZ and compounds of the invention at 4 μg/mL [18]: 16 µg/mL
- MIC combination of CAZ and compounds of the invention at 4 μg/mL [19]: 0.5 µg/mL
- MIC combination of CAZ and compounds of the invention at 4 μg/mL [20]: 4 µg/mL
- pIC50 [21]: 6.96
